Source: PubChem BioAssay AID652165 (Sanford-Burnham Center for Chemical Genomics, 2013)
Activity calls are given as the source filed them.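 How the source made its calls: active means IC50 at or below 20 µM; inactive means the rest.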

These compounds were tested against Fatty acid synthase (Homo sapiens) (UniProt P49327) (assay: inhibition of human FAS-TE enzyme activity – biochemical, kinetic fluorescence intensity, dose response, SAR follow-up (AID 652165)). Details: recombinant FAS-TE, OMFH fluorogenic substrate.
Chain of Fatty acid synthase (Homo sapiens) (P49327 whole entry, looked up): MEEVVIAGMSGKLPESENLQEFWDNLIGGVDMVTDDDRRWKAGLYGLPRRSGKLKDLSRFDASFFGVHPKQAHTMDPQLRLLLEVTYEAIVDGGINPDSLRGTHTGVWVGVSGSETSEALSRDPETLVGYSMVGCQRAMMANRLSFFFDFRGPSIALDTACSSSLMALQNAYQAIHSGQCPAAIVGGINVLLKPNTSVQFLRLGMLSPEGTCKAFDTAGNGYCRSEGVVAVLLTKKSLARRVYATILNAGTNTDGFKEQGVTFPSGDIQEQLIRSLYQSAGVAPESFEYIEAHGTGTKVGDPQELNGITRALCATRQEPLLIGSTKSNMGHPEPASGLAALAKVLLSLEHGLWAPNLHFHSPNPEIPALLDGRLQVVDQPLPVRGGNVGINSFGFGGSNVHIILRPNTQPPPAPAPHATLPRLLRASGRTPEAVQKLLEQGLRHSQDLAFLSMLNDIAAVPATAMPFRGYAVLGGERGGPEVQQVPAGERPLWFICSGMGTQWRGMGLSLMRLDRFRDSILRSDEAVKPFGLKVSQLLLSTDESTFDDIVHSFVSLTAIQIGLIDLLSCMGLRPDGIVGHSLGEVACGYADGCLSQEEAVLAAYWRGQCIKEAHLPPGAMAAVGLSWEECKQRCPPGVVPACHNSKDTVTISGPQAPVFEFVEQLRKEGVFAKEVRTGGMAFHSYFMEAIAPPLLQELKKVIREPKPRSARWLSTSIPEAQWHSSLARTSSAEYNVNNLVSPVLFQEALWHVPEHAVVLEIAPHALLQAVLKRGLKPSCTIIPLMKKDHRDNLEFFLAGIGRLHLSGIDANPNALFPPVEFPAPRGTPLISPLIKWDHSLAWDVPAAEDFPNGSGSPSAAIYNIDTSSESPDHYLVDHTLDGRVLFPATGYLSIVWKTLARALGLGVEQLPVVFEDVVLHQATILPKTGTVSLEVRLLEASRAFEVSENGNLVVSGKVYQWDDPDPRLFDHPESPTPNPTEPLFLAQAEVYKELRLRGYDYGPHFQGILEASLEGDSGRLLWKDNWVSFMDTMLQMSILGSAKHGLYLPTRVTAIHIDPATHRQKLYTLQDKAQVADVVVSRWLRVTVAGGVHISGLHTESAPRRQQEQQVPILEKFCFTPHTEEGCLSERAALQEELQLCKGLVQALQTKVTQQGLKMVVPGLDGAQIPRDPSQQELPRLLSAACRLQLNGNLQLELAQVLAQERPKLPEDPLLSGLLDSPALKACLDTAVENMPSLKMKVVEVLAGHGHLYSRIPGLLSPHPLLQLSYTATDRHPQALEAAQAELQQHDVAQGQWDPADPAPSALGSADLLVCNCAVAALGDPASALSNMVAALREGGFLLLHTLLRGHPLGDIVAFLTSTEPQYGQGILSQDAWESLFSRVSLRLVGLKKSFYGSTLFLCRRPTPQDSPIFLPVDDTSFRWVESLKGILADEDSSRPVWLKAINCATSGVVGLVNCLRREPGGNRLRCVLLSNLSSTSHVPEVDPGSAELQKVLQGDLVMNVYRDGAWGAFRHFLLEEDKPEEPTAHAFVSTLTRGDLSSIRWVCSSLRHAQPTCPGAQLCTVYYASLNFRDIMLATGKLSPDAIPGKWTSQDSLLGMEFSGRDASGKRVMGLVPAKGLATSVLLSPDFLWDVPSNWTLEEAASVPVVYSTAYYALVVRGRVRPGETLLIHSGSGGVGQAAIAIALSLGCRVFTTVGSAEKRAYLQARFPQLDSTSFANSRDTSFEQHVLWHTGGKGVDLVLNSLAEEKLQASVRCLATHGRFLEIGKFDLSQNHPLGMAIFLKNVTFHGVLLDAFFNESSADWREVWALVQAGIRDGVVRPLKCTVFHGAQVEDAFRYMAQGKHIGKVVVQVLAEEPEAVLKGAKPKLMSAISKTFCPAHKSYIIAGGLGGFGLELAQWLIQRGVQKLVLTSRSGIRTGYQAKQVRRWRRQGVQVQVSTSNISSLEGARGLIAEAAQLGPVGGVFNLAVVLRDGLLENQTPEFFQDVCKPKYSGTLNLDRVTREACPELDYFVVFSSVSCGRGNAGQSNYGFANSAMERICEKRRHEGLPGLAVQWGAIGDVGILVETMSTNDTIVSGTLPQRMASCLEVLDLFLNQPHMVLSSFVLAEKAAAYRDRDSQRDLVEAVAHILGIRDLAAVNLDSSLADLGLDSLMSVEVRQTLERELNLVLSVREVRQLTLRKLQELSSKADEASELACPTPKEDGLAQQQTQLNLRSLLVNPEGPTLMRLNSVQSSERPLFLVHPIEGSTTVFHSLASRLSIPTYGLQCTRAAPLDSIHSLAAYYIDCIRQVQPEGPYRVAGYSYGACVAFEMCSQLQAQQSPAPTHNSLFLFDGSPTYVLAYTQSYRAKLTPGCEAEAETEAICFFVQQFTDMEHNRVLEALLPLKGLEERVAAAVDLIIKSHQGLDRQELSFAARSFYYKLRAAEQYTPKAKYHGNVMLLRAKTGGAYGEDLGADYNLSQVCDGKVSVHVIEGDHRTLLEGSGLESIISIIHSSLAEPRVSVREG
Compound `CCCCC(=O)Nc1nc(-c2ccc(S(=O)(=O)N3CCCC3)cc2)cs1` has an IC50 of 0.193 µM.
With `CN(C)S(=O)(=O)c1ccc(-c2csc(NC(=O)C3CCC3)n2)cc1` the IC50 was 1.36 µM.
`CCC(C)C(=O)Nc1nc(-c2ccc(S(=O)(=O)N3CCOCC3)cc2)cs1` (centres undefined) gave an IC50 of 0.289 µM.
For `CCN(CC)S(=O)(=O)c1ccc(-c2csc(NC(=O)C3CCCCC3)n2)cc1`, the IC50 was 3.14 µM.
Work on `CCC(=O)Nc1nc(-c2ccc(S(=O)(=O)N(CC)CC)cc2)cs1` yielded an IC50 of 3.98 µM.
`CCC(C)C(=O)Nc1nc(-c2ccc(S(=O)(=O)N(CC)CC)cc2)cs1` (centres undefined) was tested, and the IC50 was 0.296 µM.
Work on `CCCCC(=O)Nc1nc(-c2ccc(S(=O)(=O)N3CCSCC3)cc2)cs1` yielded an IC50 of 0.649 µM.
`CCC(=O)Nc1nc(-c2ccc(S(=O)(=O)N(C)C)cc2)cs1` showed an IC50 of 1.09 µM.
`CC(C)C(=O)Nc1nc(-c2ccc(S(=O)(=O)N3CCCC3)cc2)cs1` gave an IC50 of 0.295 µM.
In the case of `CCC(=O)Nc1nc(-c2ccc(S(=O)(=O)N3CCC(C)CC3)cc2)cs1`, the IC50 is reported as > 80 µM (inactive).
In the case of `CC(C)C(=O)Nc1nc(-c2ccc(S(=O)(=O)N(C)C)cc2)cs1`, the IC50 is reported as 0.559 µM.
In the case of `CC(C)C(=O)Nc1nc(-c2ccc(S(=O)(=O)N3CCOCC3)cc2)cs1`, the IC50 is reported as 0.875 µM.
For `CN(C)S(=O)(=O)c1ccc(-c2csc(NC(=O)C3CCCC3)n2)cc1`, the IC50 was 1.5 µM.
With `CCCCC(=O)Nc1nc(-c2cccc(S(=O)(=O)N3CCOCC3)c2)cs1` the IC50 was 18.1 µM.
With `O=C(Nc1nc(-c2ccc(S(=O)(=O)N3CCCC3)cc2)cs1)C1CC1` the IC50 was 0.658 µM.
Work on `CCN(CC)S(=O)(=O)c1ccc(-c2csc(NC(=O)C3CC3)n2)cc1` yielded an IC50 of 2.47 µM.
Work on `CCC(=O)Nc1nc(-c2ccc(S(=O)(=O)N3CCOCC3)cc2)cs1` yielded an IC50 of 4.16 µM.
`CC(=O)Nc1nc(-c2ccc(S(=O)(=O)N3CCSCC3)cc2)cs1` was tested, and the IC50 was > 80 µM (inactive).
For `CC(C)(C)OC(=O)Nc1nc(-c2ccc(S(=O)(=O)N3CCOCC3)cc2)cs1`, the IC50 was “inactive”.
For `O=C(Nc1nc(-c2ccc(S(=O)(=O)N3CCOCC3)cc2)cs1)C1CC1`, the IC50 was 5.11 µM.
Compound `CCCCC(=O)Nc1nc(-c2ccc(S(=O)(=O)N3CCC(C)CC3)cc2)cs1` has an IC50 of 0.533 µM.
`O=C(Nc1nc(-c2ccc(S(=O)(=O)N3CCCC3)cc2)cs1)C1CCC1` showed an IC50 of 0.347 µM.
`CC(C)CC(=O)Nc1nc(-c2ccc(S(=O)(=O)N3CCOCC3)cc2)cs1` gave an IC50 of 6.62 µM.
`CC1CCN(S(=O)(=O)c2ccc(-c3csc(NC(=O)C4CC4)n3)cc2)CC1` was tested, and the IC50 was > 80 µM (inactive).
`CN(C)S(=O)(=O)c1ccc(-c2csc(NC(=O)C3CC3)n2)cc1` gave an IC50 of 1.29 µM.
`CC1CCN(S(=O)(=O)c2ccc(-c3csc(NC(=O)C(C)C)n3)cc2)CC1` showed an IC50 of 0.643 µM.
Compound `CCN(CC)S(=O)(=O)c1ccc(-c2csc(NC(=O)C3CCC3)n2)cc1` has an IC50 of 0.966 µM.
For `O=C(Nc1nc(-c2ccc(S(=O)(=O)N3CCOCC3)cc2)cs1)C1CCCC1`, the IC50 was > 80 µM (inactive).
`CCN(CC)S(=O)(=O)c1ccc(-c2csc(NC(=O)C(C)C)n2)cc1` gave an IC50 of 0.318 µM.
`CC(=O)Nc1nc(-c2ccc(S(=O)(=O)N3CCOCC3)cc2)cs1` gave an IC50 of 12 µM.
With `O=C(Nc1nc(-c2ccc(S(=O)(=O)N3CCOCC3)cc2)cs1)C1CCC1` the IC50 was 3.45 µM.
`O=C(Nc1nc(-c2ccc(S(=O)(=O)N3CCOCC3)cc2)cs1)C1CCCCC1` was tested, and the IC50 was > 80 µM (inactive).
Compound `CCC(=O)Nc1nc(-c2ccc(S(=O)(=O)N3CCCC3)cc2)cs1` has an IC50 of 0.644 µM.
`O=C(Nc1nc(-c2ccc(S(=O)(=O)N3CCCC3)cc2)cs1)C1CCCC1` gave an IC50 of 0.751 µM.
For `CCC(CC)C(=O)Nc1nc(-c2ccc(S(=O)(=O)N3CCOCC3)cc2)cs1`, the IC50 was 0.307 µM.
`CCN(CC)S(=O)(=O)c1ccc(-c2csc(NC(=O)C3CCCC3)n2)cc1` showed an IC50 of 1.18 µM.
For `CCCCC(=O)Nc1nc(-c2ccc(S(=O)(=O)N3CCOCC3)cc2)cs1`, the IC50 was 0.552 µM.
For `CCCCC(=O)Nc1nc(-c2ccc(S(=O)(=O)N(CC)CC)cc2)cs1`, the IC50 was 0.169 µM.
`CCCCC(=O)Nc1nc(-c2ccc(C(=O)N3CCOCC3)cc2)cs1` was tested, and the IC50 was “inactive”.
